Reference: patent publication US20040002141A1, “Methods and compositions for propagating vectors containing toxic cDNAs and ion channel assay systems” (priority 2002, published 2004)

How the values were obtained:
[1] = tested on: UNC-105d; conditions: García-Añoveros et al., 1998; cited from earlier work
[2] = biological target: T1, MEC-4d and MEC-2 (Caenorhabditis elegans, UniProt P24612, A713T); test: Amiloride dose-response, two-electrode voltage clamp in Xenopus oocytes co-expressing MEC-4d and MEC-2; format: cell-based; conditions: in the absence of MEC-10d; without MEC-2(114-363)
T1 construct: Plasmids containing full-length degenerin cDNAs are toxic to standard E. coli strains; expressed in transfected cells; host or cells: Xenopus laevis oocytes injected with cRNA
T1 sequence (Q27433 whole entry): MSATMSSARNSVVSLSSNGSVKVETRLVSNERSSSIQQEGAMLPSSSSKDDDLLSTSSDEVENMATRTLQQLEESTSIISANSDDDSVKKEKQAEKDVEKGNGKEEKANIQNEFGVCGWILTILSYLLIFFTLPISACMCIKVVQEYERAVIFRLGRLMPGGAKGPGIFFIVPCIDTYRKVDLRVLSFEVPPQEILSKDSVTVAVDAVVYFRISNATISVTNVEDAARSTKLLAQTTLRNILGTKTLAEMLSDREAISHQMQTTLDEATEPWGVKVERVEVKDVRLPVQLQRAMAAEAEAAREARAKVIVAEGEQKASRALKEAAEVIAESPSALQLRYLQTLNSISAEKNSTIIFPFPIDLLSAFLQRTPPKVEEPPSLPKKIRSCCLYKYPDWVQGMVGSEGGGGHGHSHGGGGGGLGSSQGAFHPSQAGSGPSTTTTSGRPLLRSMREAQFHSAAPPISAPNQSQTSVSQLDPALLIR
T1 sequence (P24612 whole entry A713T): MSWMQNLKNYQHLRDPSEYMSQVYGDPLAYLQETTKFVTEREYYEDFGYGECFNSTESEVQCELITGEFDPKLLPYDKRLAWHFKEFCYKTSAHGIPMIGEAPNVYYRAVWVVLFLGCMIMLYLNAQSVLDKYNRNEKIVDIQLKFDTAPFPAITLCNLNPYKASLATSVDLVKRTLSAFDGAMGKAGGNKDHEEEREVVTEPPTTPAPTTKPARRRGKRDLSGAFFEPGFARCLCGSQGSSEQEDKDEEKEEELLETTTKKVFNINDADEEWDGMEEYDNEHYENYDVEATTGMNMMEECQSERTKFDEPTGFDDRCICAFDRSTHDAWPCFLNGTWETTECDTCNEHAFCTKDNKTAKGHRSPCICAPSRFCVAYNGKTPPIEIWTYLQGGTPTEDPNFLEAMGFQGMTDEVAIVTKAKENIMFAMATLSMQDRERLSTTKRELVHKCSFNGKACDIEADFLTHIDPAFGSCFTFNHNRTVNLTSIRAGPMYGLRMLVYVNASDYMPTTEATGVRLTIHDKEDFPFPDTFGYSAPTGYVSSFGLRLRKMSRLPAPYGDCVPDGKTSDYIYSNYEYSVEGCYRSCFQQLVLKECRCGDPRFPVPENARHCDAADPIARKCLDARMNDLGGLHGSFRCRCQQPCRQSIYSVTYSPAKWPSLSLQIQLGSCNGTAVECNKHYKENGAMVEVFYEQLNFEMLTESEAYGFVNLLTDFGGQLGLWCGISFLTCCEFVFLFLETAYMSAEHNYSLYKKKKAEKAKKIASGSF
Description: (§1) Oocyte Expression & Electrophysiology. Capped RNAs (“cRNAs”) were synthesized (T7 mMESSAGE mMACHINE™ kit, Ambion, Austin, Tex.), purified, and quantified spectroscopically. Xenopus laevis oocytes were harvested and injected with 10 ng of each cRNA, except for oocytes co-expressing only MEC-4d and MEC-2(114-363), which were injected with 10 ng of the former and 20 ng of the latter. Oocytes were maintained in L-15 oocyte medium containing 100 μg/mL gentamicin (Cell & Molecular Technologies, Philipsburg, N.J.) at 16-18° C.
(§2) Membrane potential and current were measured 4-10 days after cRNA injection using a two-electrode voltage clamp (Warner OC-725C) at 22-25° C. […]
(§3) Analog signals were filtered at 200 Hz and sampled at 1-2 kHz (ITC-16, Instrutech, Great Neck, N.Y.); a 60 Hz notch filter was used to minimize line noise. Average values are reported as mean±S.E.M. Curves were fit by a nonlinear least-squares method (IgorPro 4.01, Wavemetrics, Oswego, Oreg.); the standard deviation measured at each point provided the weighting function. […] Relative permeabilities were calculated from the difference in reversal potential measured in solutions containing Na^+ and each test ion using the Goldman-Hodgkin-Katz equation (Hille, 2001, In: Ion Channels of Excitable Membranes, Sinaur Associates, Inc., Sunderland, Mass.).

[3] = biological target: T2, αβγENaC channels (Rattus norvegicus, UniProt P37089+P37090+P37091); conditions: McNicholas and Canessa, 1997; cited from earlier work
T2 sequence (P37089 1-698): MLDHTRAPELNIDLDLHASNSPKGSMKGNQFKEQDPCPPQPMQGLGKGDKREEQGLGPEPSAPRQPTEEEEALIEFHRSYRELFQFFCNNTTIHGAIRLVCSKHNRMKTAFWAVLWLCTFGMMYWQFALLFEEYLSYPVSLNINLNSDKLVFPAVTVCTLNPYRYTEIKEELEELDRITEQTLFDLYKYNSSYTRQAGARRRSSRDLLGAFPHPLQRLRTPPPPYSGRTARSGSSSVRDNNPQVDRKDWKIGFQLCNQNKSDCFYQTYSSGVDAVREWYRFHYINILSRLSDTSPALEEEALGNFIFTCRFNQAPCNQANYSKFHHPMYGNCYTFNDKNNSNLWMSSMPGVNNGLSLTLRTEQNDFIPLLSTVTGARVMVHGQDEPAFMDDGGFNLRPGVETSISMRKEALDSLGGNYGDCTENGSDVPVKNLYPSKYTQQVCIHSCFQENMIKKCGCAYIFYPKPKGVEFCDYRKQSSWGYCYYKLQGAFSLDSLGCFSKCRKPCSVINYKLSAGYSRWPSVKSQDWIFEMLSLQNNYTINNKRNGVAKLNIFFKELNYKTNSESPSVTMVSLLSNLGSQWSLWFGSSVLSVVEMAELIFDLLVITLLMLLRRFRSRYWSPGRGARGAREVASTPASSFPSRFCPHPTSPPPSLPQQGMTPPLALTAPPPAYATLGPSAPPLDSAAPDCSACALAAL
T2 sequence (P37090 1-638): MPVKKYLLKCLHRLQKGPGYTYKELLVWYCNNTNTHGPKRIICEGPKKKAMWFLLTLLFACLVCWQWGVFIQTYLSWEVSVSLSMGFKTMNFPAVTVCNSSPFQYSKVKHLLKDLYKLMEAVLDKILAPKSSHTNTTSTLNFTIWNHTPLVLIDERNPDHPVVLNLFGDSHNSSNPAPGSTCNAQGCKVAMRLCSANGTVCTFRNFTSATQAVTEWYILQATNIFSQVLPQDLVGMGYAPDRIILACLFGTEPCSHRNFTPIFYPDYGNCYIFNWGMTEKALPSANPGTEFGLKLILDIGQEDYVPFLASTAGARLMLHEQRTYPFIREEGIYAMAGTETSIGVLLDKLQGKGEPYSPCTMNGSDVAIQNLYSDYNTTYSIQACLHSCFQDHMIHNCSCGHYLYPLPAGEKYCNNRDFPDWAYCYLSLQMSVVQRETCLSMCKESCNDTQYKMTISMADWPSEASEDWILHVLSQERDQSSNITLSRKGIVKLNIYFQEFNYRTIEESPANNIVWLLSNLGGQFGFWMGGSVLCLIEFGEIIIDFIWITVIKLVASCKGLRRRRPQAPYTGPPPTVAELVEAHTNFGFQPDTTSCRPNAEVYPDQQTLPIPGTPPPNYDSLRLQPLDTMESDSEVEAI
T2 sequence (P37091 1-650): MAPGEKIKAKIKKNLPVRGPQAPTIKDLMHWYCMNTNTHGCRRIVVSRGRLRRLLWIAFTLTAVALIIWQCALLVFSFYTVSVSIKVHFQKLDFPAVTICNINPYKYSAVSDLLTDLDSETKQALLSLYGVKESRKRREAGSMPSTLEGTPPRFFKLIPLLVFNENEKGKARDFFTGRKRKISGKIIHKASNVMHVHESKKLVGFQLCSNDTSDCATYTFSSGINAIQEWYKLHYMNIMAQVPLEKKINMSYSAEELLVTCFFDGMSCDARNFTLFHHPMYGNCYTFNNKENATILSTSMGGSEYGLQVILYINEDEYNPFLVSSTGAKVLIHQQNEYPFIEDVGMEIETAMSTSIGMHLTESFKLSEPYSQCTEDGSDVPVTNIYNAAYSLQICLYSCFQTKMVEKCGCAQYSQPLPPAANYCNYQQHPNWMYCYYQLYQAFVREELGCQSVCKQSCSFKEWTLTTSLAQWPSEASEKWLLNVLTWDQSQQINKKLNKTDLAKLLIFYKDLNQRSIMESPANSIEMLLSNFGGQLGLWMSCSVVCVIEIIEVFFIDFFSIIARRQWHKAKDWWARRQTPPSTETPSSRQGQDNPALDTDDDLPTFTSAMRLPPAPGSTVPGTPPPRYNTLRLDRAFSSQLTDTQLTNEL

[4] = biological target: T3, MEC-4d, MEC-10d and MEC-2 (Caenorhabditis elegans, UniProt P24612+P34886, A673T/A713T); test: Amiloride dose-response, two-electrode voltage clamp in Xenopus oocytes co-expressing MEC-4d, MEC-10d and MEC-2; format: cell-based; conditions: in the presence of MEC-10d
T3 construct: Plasmids containing full-length degenerin cDNAs are toxic to standard E. coli strains; expressed in transfected cells; host or cells: Xenopus laevis oocytes injected with cRNA
T3 sequence (P34886 whole entry A673T): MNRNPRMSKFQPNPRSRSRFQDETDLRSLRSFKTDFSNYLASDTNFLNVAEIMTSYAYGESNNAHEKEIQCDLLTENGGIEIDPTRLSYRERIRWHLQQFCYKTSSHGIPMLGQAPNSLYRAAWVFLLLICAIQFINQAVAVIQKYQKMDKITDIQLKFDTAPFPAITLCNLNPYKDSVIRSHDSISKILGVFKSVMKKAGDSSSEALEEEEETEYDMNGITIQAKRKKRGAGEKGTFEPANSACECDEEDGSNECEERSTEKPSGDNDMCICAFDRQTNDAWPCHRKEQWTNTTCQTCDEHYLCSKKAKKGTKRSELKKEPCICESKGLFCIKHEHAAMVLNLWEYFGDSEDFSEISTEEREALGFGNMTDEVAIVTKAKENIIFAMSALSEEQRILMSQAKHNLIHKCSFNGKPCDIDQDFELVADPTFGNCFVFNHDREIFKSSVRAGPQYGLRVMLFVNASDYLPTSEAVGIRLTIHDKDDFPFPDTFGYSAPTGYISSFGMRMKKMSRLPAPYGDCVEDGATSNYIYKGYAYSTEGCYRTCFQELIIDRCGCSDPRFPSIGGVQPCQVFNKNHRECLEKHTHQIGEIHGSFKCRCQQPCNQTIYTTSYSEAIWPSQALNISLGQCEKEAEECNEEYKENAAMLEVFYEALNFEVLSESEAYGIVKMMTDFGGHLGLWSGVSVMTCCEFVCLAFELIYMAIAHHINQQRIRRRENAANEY
T3 sequence (P24612 whole entry A713T): as the sequence (P24612 whole entry A713T) above
Description: as §1, §2, §3

N=C(N)NC(=O)c1nc(Cl)c(N)nc1N [amiloride]
δ, voltage-dependence of amiloride blockade [1]: 0.65-0.68 | δ, voltage-dependence of amiloride blockade (Woodhull model fit) [2]: 0.63 | δ, voltage-dependence of amiloride blockade [3]: 0.15 | δ, voltage-dependence of amiloride blockade (Woodhull model fit) [4]: 0.52
